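Growth conditions: 96-well plates. Treatment: test compound, 48 hours, 5 concentrations. Analysis: linear interpolation between bracketing concentrations; unreached endpoints set to highest concentration. GI50 = concentration required for 50% inhibition of growth.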 The source made the active and inactive calls. Cut-off read from the data, not from the text of the source: active = GI50 up to about 1.1 µM and inactive = higher.
Experiments:
Assay in all cases: NCI-60 cell line screen, 48 h
[1] = test system: A498
[2] = test system: A549
[3] = test system: HCC 2998
[4] = test system: LOX IMVI
[5] = test system: MOLT-4
[6] = test system: NCI-H23
[7] = test system: OVCAR-8
[8] = test system: SF-295
[9] = test system: SK-MEL-28
[10] = test system: SK-OV-3
[11] = test system: SN12C
[12] = test system: SNB-75
[13] = test system: SR
[14] = test system: U-251
[15] = test system: UACC-62
[16] = test system: HCT-116
[17] = test system: NCI-H522
[18] = test system: PC-3

Measured: GI50

Cn1c2c(c3ccccc31)C1CCCCCCC1C1C(=O)OC(=O)C21 (stereo unspecified)
inactive: [1] 72.1 µM | [2] 36.9 µM | [3] 22.4 µM | [4] 22.8 µM | [5] 24.8 µM | [6] 69.7 µM | [7] 31.9 µM | [8] 35.2 µM | [9] 54.1 µM | [10] 32.7 µM | [11] 39.5 µM | [12] 30.3 µM | [13] 29 µM | [14] 37.9 µM | [15] 59.6 µM

O=C(O)C1=C(C(=O)O)Oc2ccccc2O1
inactive: [1] > 100 µM | [2] > 100 µM | [3] > 100 µM | [16] > 100 µM | [4] > 100 µM | [5] > 100 µM | [6] > 100 µM | [17] > 100 µM | [7] > 100 µM | [8] > 100 µM | [9] > 100 µM | [10] > 100 µM | [11] > 100 µM | [12] > 100 µM | [13] > 100 µM | [14] > 100 µM | [15] > 100 µM

CC(=O)OC(C)(C)[C@@H]1CC[C@]2(C)/C=C/[C@H](C)C[C@@H](O)C3=C(C)C[C@@H](O3)C12 (stereo partly specified)
inactive: [1] > 100 µM | [2] > 100 µM | [3] > 100 µM | [16] > 100 µM | [4] > 100 µM | [5] > 100 µM | [6] > 100 µM | [7] > 100 µM | [8] > 100 µM | [9] > 100 µM | [10] > 100 µM | [11] > 100 µM | [12] > 100 µM | [13] > 100 µM | [14] > 100 µM | [15] > 100 µM

C=C(Cl)C(Cl)(CCl)CCC(Br)C(C)(C)Br (stereo unspecified)
inactive: [1] > 10 µM | [2] > 10 µM | [3] > 10 µM | [16] > 10 µM | [5] > 10 µM | [6] > 10 µM | [17] > 10 µM | [7] > 10 µM | [18] > 10 µM | [8] > 10 µM | [9] > 10 µM | [10] > 10 µM | [11] > 10 µM | [12] > 10 µM | [13] > 10 µM | [14] > 10 µM | [15] > 10 µM

O=C(/C=C/c1ccco1)N1CCN(Cc2ccccc2)CC1
inactive: [1] > 100 µM | [2] > 100 µM | [3] > 100 µM | [16] > 100 µM | [4] > 100 µM | [5] > 100 µM | [6] > 100 µM | [17] > 100 µM | [7] > 100 µM | [8] > 100 µM | [9] > 100 µM | [10] > 100 µM | [11] > 100 µM | [12] > 100 µM | [13] > 100 µM | [14] > 100 µM | [15] > 100 µM

CC1C(=O)O[C@H]2C1CC[C@@]1(C)[C@H](O)CC[C@@]13C[C@]2(O)OO3 (stereo partly specified)
inactive: [1] > 100 µM | [2] > 100 µM | [3] > 100 µM | [16] > 100 µM | [4] > 100 µM | [5] > 100 µM | [6] > 100 µM | [7] > 100 µM | [8] > 100 µM | [9] > 100 µM | [10] > 100 µM | [11] > 100 µM | [13] > 100 µM | [14] > 100 µM | [15] > 100 µM

N#CCCN(C1=NN(C(=O)CC(=O)Nc2ccc(Cl)cc2)C(c2ccccc2)C1)c1ccc(Cl)cc1 (stereo unspecified)
inactive: [1] > 100 µM | [2] > 100 µM | [3] > 100 µM | [16] > 100 µM | [4] > 100 µM | [5] > 100 µM | [6] > 100 µM | [17] > 100 µM | [7] > 100 µM | [8] > 100 µM | [9] > 100 µM | [11] > 100 µM | [12] > 100 µM | [13] > 100 µM | [14] > 100 µM | [15] > 100 µM

CC(=O)c1ccc(N2C(=O)C3c4[nH]c5ccccc5c4C4CCC(C(C)(C)C)CC4C3C2=O)cc1 (stereo unspecified)
inactive: [1] 22.5 µM | [2] 19.6 µM | [3] 20.7 µM | [16] 16.6 µM | [5] 30.1 µM | [6] 19.2 µM | [17] 24.4 µM | [7] 22.4 µM | [8] 28.7 µM | [9] 28.8 µM | [10] 48.6 µM | [11] 18.5 µM | [12] 22.6 µM | [13] 26.7 µM | [14] 19.5 µM | [15] 21.1 µM

CN(C)C(=O)Oc1c(-c2ccccc2)c(=O)n2c3ccccc3n3c(=O)n(C)c(=O)c1c23
inactive: [1] > 100 µM | [2] > 100 µM | [3] > 100 µM | [16] > 100 µM | [4] > 100 µM | [5] > 100 µM | [6] > 100 µM | [7] > 100 µM | [8] > 100 µM | [9] > 100 µM | [10] > 100 µM | [11] > 100 µM | [12] 72.3 µM | [13] > 100 µM | [14] > 100 µM | [15] > 100 µM

CN(CCS(=O)(=O)N1C(=O)C2CCCN2C(=O)[C@@H]1Cc1ccccc1)C(=O)OCc1ccccc1 (stereo partly specified)
inactive: [1] 35.5 µM | [2] 48 µM | [3] 40.2 µM | [16] 39.9 µM | [4] 58.3 µM | [5] 16.5 µM | [6] 53.2 µM | [17] 39.5 µM | [7] 70.3 µM | [8] 62.2 µM | [9] 93.5 µM | [10] > 100 µM | [11] 91.6 µM | [12] 33.4 µM | [13] 40 µM | [14] 56.2 µM | [15] 38.8 µM

Cc1c(C(=O)CC(=O)C(=O)Nc2cccc(C(F)(F)F)c2)[n+]([O-])c2ccccc2[n+]1[O-]
inactive: [1] 20.7 µM | [2] 14.4 µM | [3] 4.72 µM | [16] 3.06 µM | [4] 2.86 µM | [5] 2.71 µM | [6] 7.36 µM | [17] 2.31 µM | [7] 2.45 µM | [8] 10.6 µM | [9] 7.35 µM | [10] 18.2 µM | [11] 3.37 µM | [12] 3.04 µM | [13] 2.33 µM | [14] 4.03 µM | [15] 2.76 µM

O=C(COc1ccc(Br)cc1Br)N1N=C(c2ccc([N+](=O)[O-])o2)CC1(O)c1ccccc1 (stereo unspecified)
inactive: [1] 10.2 µM | [2] 8.65 µM | [3] 10.6 µM | [16] 11.9 µM | [4] 5.47 µM | [5] 2.64 µM | [6] 12.4 µM | [17] 5.48 µM | [7] 9.89 µM | [8] 18.7 µM | [9] 12.6 µM | [10] 24.1 µM | [11] 12.2 µM | [12] 14.1 µM | [13] 2.12 µM | [14] 8.73 µM | [15] 4.95 µM

— ChEMBL document CHEMBL1201862, “PubChem BioAssay data set” (2004)
